Measurements from patent US9249129B2, “Morpholino substituted urea derivatives as mTOR inhibitors” (CELLZOME LIMITED, priority 2010, dated 2016).
Where two headings read alike, the source gives them in different places.

Legend:
[1] = target: T1, DNA-dependent protein kinase (DNA-PK) (Homo sapiens, UniProt P78527); assay: kinobeads assay, DNA-PK (dot blot detection); type: binding
T1 construct: endogenous in cells; host or cells: Jurkat cells (ATCC TIB-152, clone E6-1), lysate
How it was run: (§1)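 Jurkat cell lysate (5 mg/mL protein) incubated 2 h in the cold with test compound (9-step 1:3 series) and immobilized phenylthiazole/phenylmorpholin-chromen ligand beads. Bead-bound kinases eluted, detected by specific antibody dot blot with infrared readout; IC50 from dose-response curves.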

PI3Kγ = target: T2, PI3Kγ (Homo sapiens, UniProt P48736); assay: kinobeads assay, PI3K gamma (dot blot detection); type: binding; details: Table 4, read-out: Inhibition values (IC50) PI3Kg
T2 construct: endogenous in cells; host or cells: Jurkat cells (ATCC TIB-152) lysate, the only lysate described
T2 sequence (P48736 whole entry): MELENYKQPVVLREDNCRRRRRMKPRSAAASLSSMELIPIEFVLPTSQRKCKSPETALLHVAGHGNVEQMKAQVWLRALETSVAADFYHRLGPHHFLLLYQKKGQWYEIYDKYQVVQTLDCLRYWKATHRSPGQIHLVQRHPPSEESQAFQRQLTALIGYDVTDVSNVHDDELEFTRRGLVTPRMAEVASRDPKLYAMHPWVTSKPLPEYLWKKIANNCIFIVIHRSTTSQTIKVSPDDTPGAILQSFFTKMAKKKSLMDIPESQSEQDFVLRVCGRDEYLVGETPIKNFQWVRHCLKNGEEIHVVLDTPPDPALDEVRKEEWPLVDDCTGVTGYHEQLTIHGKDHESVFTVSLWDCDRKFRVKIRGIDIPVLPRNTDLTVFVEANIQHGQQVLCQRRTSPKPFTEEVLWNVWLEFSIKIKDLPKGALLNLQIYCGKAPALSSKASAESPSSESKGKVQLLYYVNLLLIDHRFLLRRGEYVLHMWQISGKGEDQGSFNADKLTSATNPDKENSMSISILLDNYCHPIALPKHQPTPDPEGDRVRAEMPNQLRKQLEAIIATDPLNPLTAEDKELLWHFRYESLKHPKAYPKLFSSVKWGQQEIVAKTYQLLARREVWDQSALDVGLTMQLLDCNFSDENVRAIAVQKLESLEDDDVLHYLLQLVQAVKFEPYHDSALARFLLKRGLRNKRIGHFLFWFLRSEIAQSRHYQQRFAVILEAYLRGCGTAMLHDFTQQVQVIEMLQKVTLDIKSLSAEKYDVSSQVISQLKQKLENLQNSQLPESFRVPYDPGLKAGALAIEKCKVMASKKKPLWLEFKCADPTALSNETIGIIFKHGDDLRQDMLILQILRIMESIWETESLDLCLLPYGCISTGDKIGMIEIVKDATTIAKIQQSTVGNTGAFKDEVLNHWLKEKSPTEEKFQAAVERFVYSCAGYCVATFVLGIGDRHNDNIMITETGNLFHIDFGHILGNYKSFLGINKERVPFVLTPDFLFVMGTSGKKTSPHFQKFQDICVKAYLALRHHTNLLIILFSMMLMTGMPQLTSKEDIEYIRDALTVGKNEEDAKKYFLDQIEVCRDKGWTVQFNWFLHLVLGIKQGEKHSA

PI3Kβ = target: T3, PI3Kβ (Homo sapiens, UniProt P42338); assay: kinobeads assay, PI3K beta (dot blot detection); type: binding; details: Table 4, read-out: Inhibition values (IC50) PI3Kb
T3 construct: endogenous in cells; host or cells: Jurkat cells (ATCC TIB-152) lysate, the only lysate described
T3 sequence (P42338 whole entry): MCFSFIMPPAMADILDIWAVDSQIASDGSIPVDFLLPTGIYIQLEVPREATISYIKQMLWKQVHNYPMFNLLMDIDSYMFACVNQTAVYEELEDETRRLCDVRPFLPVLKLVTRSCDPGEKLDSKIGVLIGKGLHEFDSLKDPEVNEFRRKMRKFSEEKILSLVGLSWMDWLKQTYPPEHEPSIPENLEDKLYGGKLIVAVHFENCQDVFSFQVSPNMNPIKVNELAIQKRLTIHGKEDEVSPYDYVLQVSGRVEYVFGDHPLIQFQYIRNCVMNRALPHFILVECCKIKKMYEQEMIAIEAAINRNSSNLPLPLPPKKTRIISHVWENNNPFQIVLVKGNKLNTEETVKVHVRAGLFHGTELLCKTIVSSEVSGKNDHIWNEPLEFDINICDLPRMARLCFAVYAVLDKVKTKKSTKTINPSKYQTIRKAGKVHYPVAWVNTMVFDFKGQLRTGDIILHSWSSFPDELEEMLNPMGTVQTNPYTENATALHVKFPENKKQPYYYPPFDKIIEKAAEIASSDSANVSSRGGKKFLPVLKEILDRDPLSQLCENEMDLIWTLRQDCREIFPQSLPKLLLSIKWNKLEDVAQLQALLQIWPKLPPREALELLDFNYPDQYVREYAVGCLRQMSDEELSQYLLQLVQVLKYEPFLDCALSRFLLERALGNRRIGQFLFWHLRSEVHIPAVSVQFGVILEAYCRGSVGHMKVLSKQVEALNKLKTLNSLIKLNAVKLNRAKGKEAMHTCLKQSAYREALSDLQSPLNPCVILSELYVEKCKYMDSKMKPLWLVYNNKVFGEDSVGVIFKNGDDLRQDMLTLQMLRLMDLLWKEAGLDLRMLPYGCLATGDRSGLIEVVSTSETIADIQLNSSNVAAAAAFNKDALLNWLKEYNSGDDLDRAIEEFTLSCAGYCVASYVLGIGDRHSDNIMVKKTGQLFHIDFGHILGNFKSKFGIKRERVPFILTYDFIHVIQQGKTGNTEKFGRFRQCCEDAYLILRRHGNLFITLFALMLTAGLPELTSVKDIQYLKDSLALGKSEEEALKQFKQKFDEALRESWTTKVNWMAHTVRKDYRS
T3 sequence (P27986 whole entry partner): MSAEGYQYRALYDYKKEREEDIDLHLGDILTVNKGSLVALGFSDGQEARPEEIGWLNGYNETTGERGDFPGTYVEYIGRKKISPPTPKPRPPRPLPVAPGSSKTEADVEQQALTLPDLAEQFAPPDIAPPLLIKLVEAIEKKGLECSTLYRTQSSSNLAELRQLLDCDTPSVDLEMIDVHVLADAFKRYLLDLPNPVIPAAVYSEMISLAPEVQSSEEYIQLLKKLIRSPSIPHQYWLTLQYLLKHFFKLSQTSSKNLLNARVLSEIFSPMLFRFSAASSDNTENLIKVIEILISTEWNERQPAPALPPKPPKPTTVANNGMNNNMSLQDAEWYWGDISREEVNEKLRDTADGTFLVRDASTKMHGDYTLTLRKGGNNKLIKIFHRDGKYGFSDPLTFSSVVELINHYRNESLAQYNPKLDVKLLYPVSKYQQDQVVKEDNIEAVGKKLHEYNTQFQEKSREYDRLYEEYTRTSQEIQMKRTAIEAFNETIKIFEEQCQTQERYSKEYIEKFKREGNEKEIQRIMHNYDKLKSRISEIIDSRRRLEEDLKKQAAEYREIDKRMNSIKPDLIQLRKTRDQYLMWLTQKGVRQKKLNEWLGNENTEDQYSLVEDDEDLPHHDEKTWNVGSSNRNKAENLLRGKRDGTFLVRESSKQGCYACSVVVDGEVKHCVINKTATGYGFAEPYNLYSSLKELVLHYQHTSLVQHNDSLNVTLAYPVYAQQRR

mTOR = target: T4, mTOR (Homo sapiens, UniProt P42345); assay: mTOR kinobeads assay (dot blot detection); type: binding
T4 construct: endogenous in cells; host or cells: Jurkat cells (ATCC TIB-152, clone E6-1), lysate
How it was run: as §1

PI3Kα = target: T5, PI3Kα (Homo sapiens, UniProt P42336); assay: kinobeads assay, PI3K alpha (dot blot detection); type: binding; details: Table 4, read-out: Inhibition values (IC50) PI3Ka
T5 construct: endogenous in cells; host or cells: Jurkat cells (ATCC TIB-152) lysate, the only lysate described
T5 sequence (P42336 whole entry): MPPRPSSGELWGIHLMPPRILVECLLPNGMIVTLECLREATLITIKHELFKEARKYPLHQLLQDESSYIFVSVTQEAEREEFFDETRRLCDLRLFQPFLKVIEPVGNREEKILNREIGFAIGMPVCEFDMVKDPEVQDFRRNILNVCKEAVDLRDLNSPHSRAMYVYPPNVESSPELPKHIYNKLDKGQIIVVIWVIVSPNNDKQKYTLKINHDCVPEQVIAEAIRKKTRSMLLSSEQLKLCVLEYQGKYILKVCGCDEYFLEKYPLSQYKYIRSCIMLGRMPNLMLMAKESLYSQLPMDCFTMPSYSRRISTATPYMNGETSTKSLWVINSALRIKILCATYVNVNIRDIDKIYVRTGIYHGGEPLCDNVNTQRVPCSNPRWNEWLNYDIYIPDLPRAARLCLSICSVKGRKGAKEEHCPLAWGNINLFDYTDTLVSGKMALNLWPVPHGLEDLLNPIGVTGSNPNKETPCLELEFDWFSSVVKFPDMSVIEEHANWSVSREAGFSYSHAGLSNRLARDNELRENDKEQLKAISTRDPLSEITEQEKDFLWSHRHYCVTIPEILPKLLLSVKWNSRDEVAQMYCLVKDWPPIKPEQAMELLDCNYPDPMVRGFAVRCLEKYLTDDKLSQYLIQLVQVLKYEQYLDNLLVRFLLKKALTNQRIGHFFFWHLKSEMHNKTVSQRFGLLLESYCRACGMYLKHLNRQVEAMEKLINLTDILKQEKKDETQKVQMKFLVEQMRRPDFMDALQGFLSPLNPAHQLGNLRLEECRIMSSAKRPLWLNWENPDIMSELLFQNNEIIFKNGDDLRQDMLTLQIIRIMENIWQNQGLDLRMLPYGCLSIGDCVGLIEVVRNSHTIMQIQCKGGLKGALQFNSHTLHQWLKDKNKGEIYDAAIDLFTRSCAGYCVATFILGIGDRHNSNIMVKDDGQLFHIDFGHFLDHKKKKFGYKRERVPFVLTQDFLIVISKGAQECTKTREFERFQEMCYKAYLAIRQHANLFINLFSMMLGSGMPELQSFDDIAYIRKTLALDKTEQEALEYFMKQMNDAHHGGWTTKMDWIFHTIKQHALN
T5 sequence (P27986 whole entry partner): as the sequence (P27986 whole entry partner) above

[2] = tested on: S6RP serine-240/244 phosphorylation in HEK293T/17 cells; assay: In vitro phospho-S6 cellular assay (pS6RP S240/244); type: cell-based; details: Homo sapiens, Table 6, 2 hours, S6RP Ser240/244, read-out: pS6 (phospho-S6 cell assay data, activity level)
Description: In Vitro Phospho-S6 and Phospho-Akt Cellular Assay
Activation of mTOR signaling results in phosphorylation of several downstream targets. In cells, mTOR exists in two different protein complexes. The mTOR Complex-1 (mTORC1) phosphorylates and activates S6 Kinase 1 (S6K1) and S6 Kinase 2 (S6K2) (also known as p70S6K) which then phosphorylate S6 Ribosomal Protein (S6RP) (also known as RPS6). S6RP is phosphorylated on serine 235, serine 236, serine 240 and serine 244 by both pS6K1 and pS6K2. The mTOR Complex-2 (mTORC2) phosphorylates AKT on serine 473 which activates the AKT signaling pathway.
The assay measures a test compound's inhibition of S6RP serine-240/244 phosphorylation and inhibition of Akt serine-473 phosphorylation in human embryonic kidney derived HEK293T/17 cells (ATCC CRL-11268).
The HEK293T/17 cell line is maintained in DMEM media (Invitrogen catalogue number 41965-039) supplemented with 10% FCS at 37° C. in a 5% CO2 humidified incubator.
Cells are seeded in 96-well plates at 40,000 cells/well (pS6RP S240/244 assay) or 80,000 cells/well (pAkt 5473 assay) in 90 μl growth media (DMEM, 2% FCS). Plates are incubated for 1 hour in a humidified incubator to allow the cells to adhere. Cells are treated with 8 concentrations of test compounds or DMSO alone for controls (final DMSO concentration 0.1%) and incubated at 37° C. for 2 hours. Then 20 μl of 5× concentrated lysis buffer (750 mM NaCl, 100 mM Tris pH7.4, 5 mM EDTA, 5 mM EGTA, 5% Triton X-100) is added, plates are sealed and incubated for 15 minutes at 4° C. with gentle shaking. After cell lysis, 25 μl cell lysate is transferred to a MesoScale plate coated with an antibody to pS6RP Ser240/244 (MesoScale Discovery K150DGD-3) or an antibody to pAkt Ser 473 (MesoScale Discovery K151DGD-3). Plates have been blocked before by incubation with 150 μl MesoScale Discovery Blocking Solution-A for 1 hour at room temperature followed by washing with 150 μl 1× Tris wash buffer per well. After the transfer of the cell lysate to the MSD plate, the pS6RP (or pAkt) protein is captured on the coated antibody by incubation at room temperature for 1 hour with gentle shaking. After the capture step the plate is washed three times with 150 μl of 1× Tris wash buffer per well. Then 25 μl detection antibody conjugated with a Sulfo-Tag is added and incubated for 1 hour at room temperature with gentle shaking. Subsequently the antibody solution is removed and the plate is washed 3 times with 150 μl 1× Tris wash buffer per well and 150 μl Read buffer is added. The plates are analysed on a MSD 2400 Plate Reader (MesoScale Discovery). Data analysis is performed using nonlinear regression for a sigmoidal dose-response with a variable slope.

PI3K delta (PI3Kd) = target: T6, PI3K delta (PI3Kd) (Homo sapiens, UniProt O00329); assay: kinobeads assay, PI3K delta (dot blot detection); type: binding
T6 construct: endogenous in cells; host or cells: Jurkat cells (ATCC TIB-152, clone E6-1), lysate
T6 sequence (O00329 whole entry): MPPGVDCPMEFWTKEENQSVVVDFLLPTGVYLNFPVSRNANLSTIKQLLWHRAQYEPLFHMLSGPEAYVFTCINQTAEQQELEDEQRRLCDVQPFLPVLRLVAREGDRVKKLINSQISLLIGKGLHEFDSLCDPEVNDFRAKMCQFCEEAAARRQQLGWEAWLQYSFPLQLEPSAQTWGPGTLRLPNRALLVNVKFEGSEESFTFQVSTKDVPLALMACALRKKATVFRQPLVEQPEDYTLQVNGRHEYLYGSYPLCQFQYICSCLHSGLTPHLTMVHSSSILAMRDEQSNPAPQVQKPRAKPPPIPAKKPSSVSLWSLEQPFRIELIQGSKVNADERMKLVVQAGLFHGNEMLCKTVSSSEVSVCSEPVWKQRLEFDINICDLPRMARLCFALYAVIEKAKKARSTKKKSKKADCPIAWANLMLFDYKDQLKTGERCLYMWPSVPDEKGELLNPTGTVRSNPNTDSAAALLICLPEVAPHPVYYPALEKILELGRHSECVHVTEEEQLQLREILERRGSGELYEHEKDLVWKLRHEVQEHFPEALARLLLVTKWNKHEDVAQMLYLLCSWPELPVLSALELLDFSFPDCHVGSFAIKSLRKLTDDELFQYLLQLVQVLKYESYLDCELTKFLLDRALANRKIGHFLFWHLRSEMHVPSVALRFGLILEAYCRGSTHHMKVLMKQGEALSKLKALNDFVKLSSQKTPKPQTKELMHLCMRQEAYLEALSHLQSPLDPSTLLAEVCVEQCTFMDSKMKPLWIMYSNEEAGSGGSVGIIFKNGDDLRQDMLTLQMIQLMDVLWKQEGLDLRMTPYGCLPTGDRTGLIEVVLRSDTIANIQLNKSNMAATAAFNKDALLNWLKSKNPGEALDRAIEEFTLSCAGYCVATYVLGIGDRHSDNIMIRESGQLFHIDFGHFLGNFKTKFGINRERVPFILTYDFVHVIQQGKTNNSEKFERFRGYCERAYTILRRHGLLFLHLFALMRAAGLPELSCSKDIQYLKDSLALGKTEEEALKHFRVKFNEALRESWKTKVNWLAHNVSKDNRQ
T6 sequence (P27986 whole entry partner): as the sequence (P27986 whole entry partner) above
How it was run: as §1

[3] = Table 2, Jurkat cell lysate, read-out: Inhibition values (IC50) DNAPK
[4] = Table 4, read-out: Inhibition values (IC50) DNAPK
[5] = Table 2, Jurkat cell lysate, read-out: Inhibition values (IC50) mTor
[6] = Table 4, read-out: Inhibition values (IC50) mTOR
[7] = Table 2, Jurkat cell lysate, read-out: Inhibition values (IC50) PI3Kd
[8] = Table 4, read-out: Inhibition values (IC50) PI3Kd

IC50 [1, 3]	IC50 [1, 4]	IC50 (PI3Kγ)	IC50 (PI3Kβ)	IC50 (mTOR; [5])	IC50 (mTOR; [6])	IC50 (PI3Kα)	IC50 (PI3K delta (PI3Kd); [7])	IC50 (PI3K delta (PI3Kd); [8])	SMILES	IC50 [2]
≥ 10 µM	≥ 10 µM	≥ 10 µM	≥ 10 µM	0.1 to 1 µM	0.1 to 1 µM	≥ 10 µM	≥ 10 µM	≥ 10 µM	C[C@H]1COCCN1c1cc(-c2ccncc2F)nc(-c2ccc(NC(=O)NC3CC3)cc2)n1 [Example 24, (S)-1-cyclopropyl-3-(4-(4-(3-fluoropyridin-4-yl)-6-(3-methylmorpholino)pyrimidin-2-yl)phenyl)urea]	0.1 to 1 µM
≥ 10 µM	≥ 10 µM	≥ 10 µM	≥ 10 µM	1 to 10 µM	1 to 10 µM	≥ 10 µM	≥ 10 µM	≥ 10 µM	C[C@H]1COCCN1c1cc(-c2cc(F)ccc2S(C)(=O)=O)nc(-c2ccc(NC(=O)NCCF)cc2F)n1 [Example 68, (S)-1-(3-fluoro-4-(4-(5-fluoro-2-(methylsulfonyl)phenyl)-6-(3-methylmorpholino)pyrimidin-2-yl)phenyl)-3-(2-fluoroethyl)urea]	0.1 to 1 µM
1 to 10 µM	1 to 10 µM	≥ 10 µM	≥ 10 µM	0.1 to 1 µM	0.1 to 1 µM	≥ 10 µM	≥ 10 µM	≥ 10 µM	O=C(Nc1ccc(-c2nccc(N3CC4CCC(C3)O4)n2)cc1)NC1CC1 [Example 48, 1-(4-(4-(8-oxa-3-azabicyclo[3.2.1]octan-3-yl)pyrimidin-2-yl)phenyl)-3-cyclopropylurea]	0.1 to 1 µM
≥ 10 µM	≥ 10 µM	≥ 10 µM	≥ 10 µM	1 to 10 µM	1 to 10 µM	≥ 10 µM	≥ 10 µM	≥ 10 µM	C[C@H]1COCCN1c1nc(-c2ccc(NC(=O)NC3CC3)cc2)cc(-c2cccnc2)n1 [Example 7, (S)-1-cyclopropyl-3-(4-(2-(3-methylmorpholino)-6-(pyridin-3-yl)pyrimidin-4-yl)phenyl)]	0.1 to 1 µM
≥ 10 µM	≥ 10 µM	≥ 10 µM	≥ 10 µM	1 to 10 µM	1 to 10 µM	≥ 10 µM	≥ 10 µM	≥ 10 µM	O=C(Nc1ccc(-c2ccnc(N3CC4CCC(C3)O4)n2)cc1)NC1CC1 [Example 57, 1-(4-(2-(8-oxa-3-azabicyclo[3.2.1]octan-3-yl)pyrimidin-4-yl)phenyl)-3-cyclopropylurea]	0.1 to 1 µM
≥ 10 µM	≥ 10 µM	≥ 10 µM	≥ 10 µM	0.1 to 1 µM	0.1 to 1 µM	≥ 10 µM	≥ 10 µM	≥ 10 µM	C[C@H]1COCCN1c1cc(-c2cc(F)ccc2S(C)(=O)=O)nc(-c2ccc(NC(=O)NCCO)cc2F)n1 [Example 72, (S)-1-(3-fluoro-4-(4-(5-fluoro-2-(methylsulfonyl)phenyl)-6-(3-methylmorpholino)pyrimidin-2-yl)phenyl)-3-(2-hydroxyethyl)urea]	0.1 to 1 µM
≥ 10 µM	≥ 10 µM	≥ 10 µM	≥ 10 µM	1 to 10 µM	0.1 to 1 µM	≥ 10 µM	≥ 10 µM	≥ 10 µM	CCNC(=O)Nc1ccc(-c2nccc(N3CCOC[C@@H]3C)n2)cc1 [Example 37, (S)-1-ethyl-3-(4-(4-(3-methylmorpholino)pyrimidin-2-yl)phenyl)urea]	0.1 to 1 µM
	≥ 10 µM	≥ 10 µM	≥ 10 µM		0.1 to 1 µM	≥ 10 µM		≥ 10 µM	CS(=O)(=O)c1ccc(F)cc1-c1cc(-c2ccc(NC(=O)NC3CC3)cc2)nc(N2CC3CCC(C2)O3)n1 [Example 81, 1-(4-(2-(8-oxa-3-azabicyclo[3.2.1]octan-3-yl)-6-(5-fluoro-2-(methylsulfonyl)phenyl)pyrimidin-4-yl)phenyl)-3-cyclopropylurea]	< 0.1 µM
	≥ 10 µM	≥ 10 µM	≥ 10 µM		0.1 to 1 µM	≥ 10 µM		≥ 10 µM	C[C@H]1COCCN1c1nc(-c2ccc(NC(=O)NC3COC3)cc2)cc(-c2cc(F)ccc2S(C)(=O)=O)n1 [Example 86, (S)-1-(4-(6-(5-fluoro-2-(methylsulfonyl)phenyl)-2-(3-methylmorpholino)pyrimidin-4-yl)phenyl)-3-(oxetan-3-yl)urea]	0.1 to 1 µM
≥ 10 µM	≥ 10 µM	≥ 10 µM	≥ 10 µM	0.1 to 1 µM	0.1 to 1 µM	1 to 10 µM	≥ 10 µM	≥ 10 µM	C[C@H]1COCCN1c1ccnc(-c2ccc(NC(=O)NCCO)cc2)n1 [Example 53, (S)-1-(2-hydroxyethyl)-3-(4-(4-(3-methylmorpholino)pyrimidin-2-yl)phenyl)urea]	0.1 to 1 µM
≥ 10 µM	≥ 10 µM	≥ 10 µM	≥ 10 µM	0.1 to 1 µM	0.1 to 1 µM	≥ 10 µM	≥ 10 µM	≥ 10 µM	CC(O)CNC(=O)Nc1ccc(-c2cc(-c3cc(F)ccc3S(C)(=O)=O)nc(N3CCOC[C@@H]3C)n2)cc1 (stereo partly drawn) [Example 71, 1-(4-(6-(5-fluoro-2-(methylsulfonyl)phenyl)-2-((S)-3-methylmorpholino)pyrimidin-4-yl)phenyl)-3-(2-hydroxypropyl)urea]	< 0.1 µM
	≥ 10 µM	≥ 10 µM	≥ 10 µM		< 0.1 µM	≥ 10 µM		≥ 10 µM	C[C@H]1COCCN1c1cc(-c2ccccc2S(C)(=O)=O)nc(-c2ccc(NC(=O)NCCO)cc2)n1 [Example 80, (S)-1-(2-hydroxyethyl)-3-(4-(4-(3-methylmorpholino)-6-(2-(methylsulfonyl)phenyl)pyrimidin-2-yl)phenyl)urea]	< 0.1 µM
1 to 10 µM	1 to 10 µM	≥ 10 µM	1 to 10 µM	1 to 10 µM	1 to 10 µM	1 to 10 µM	1 to 10 µM	1 to 10 µM	CNC(=O)Nc1ccc(-c2ccnc(N3CCOCC3)n2)cc1 [Example 30, 1-methyl-3-(4-(2-morpholinopyrimidin-4-yl)phenyl)urea]	1 to 10 µM
≥ 10 µM	≥ 10 µM	≥ 10 µM	≥ 10 µM	1 to 10 µM	1 to 10 µM	≥ 10 µM	≥ 10 µM	≥ 10 µM	O=C(Nc1ccc(-c2ccnc(N3CCOCC3)n2)cc1)NC1CC1 [Example 28, 1-cyclopropyl-3-(4-(2-morpholinopyrimidin-4-yl)phenyl)urea]	1 to 10 µM
